Assay: xn = mol fraction of the nth substance listed
Conditions: Liquid, Vibrating tube method

CCCCCCCO [heptan-1-ol] + CCCCCCC
mass density [kg/m3]
Conditions	x1 = 0.1493	x1 = 0.3215	x1 = 0.5226	x1 = 0.6698	x1 = 0.8469	x1 = 1
313.15 K, 50000 kPa	725.8	748	774.1	793.9	823.8	837.2
313.15 K, 55000 kPa	728.8	750.9	776.9	796.6	826.4	839.7
313.15 K, 60000 kPa	731.8	753.8	779.6	799.2	828.8	842.1
313.15 K, 65000 kPa	734.6	756.5	782.2	801.8	831.2	844.4
313.15 K, 70000 kPa	737.3	759.1	784.8	804.2	833.6	846.7
313.15 K, 80000 kPa	742.5	764.2	789.6	808.9	838	851.1
313.15 K, 90000 kPa	747.5	769	794.3	813.5	842.4	855.3
313.15 K, 100000 kPa	752.1	773.6	798.7	817.7	846.4	859.3
313.15 K, 110000 kPa	756.6	778	803	821.9	850.4	863.2
313.15 K, 120000 kPa	760.8	782.1	807	825.8	854.2	867
313.15 K, 130000 kPa	765	786.2	810.9	829.7	857.9	870.6
313.15 K, 140000 kPa	768.9	790.1	814.7	833.4	861.5	874.2
333.15 K, 100 kPa	669.3	693.9	722.8	745	778	793.3
333.15 K, 1000 kPa	670.5	694.9	723.7	745.8	778.8	794
333.15 K, 5000 kPa	675.1	699.1	727.6	749.5	782	797.1
333.15 K, 10000 kPa	680.5	704.1	732.1	753.7	785.9	800.7
333.15 K, 15000 kPa	685.6	708.9	736.5	757.8	789.7	804.3
333.15 K, 20000 kPa	690.2	713.2	740.5	761.7	793.1	807.7
333.15 K, 25000 kPa	694.5	717.3	744.4	765.3	796.5	810.8
333.15 K, 30000 kPa	698.8	721.2	748.1	768.8	799.7	813.9
333.15 K, 35000 kPa	702.7	725	751.6	772.1	802.8	816.9
333.15 K, 40000 kPa	706.4	728.5	755	775.3	805.8	819.8
333.15 K, 45000 kPa	710	731.9	758.1	778.3	808.7	822.4
333.15 K, 50000 kPa	713.5	735.2	761.3	781.4	811.5	825.2
333.15 K, 55000 kPa	716.7	738.3	764.3	784.2	814.2	827.8
333.15 K, 60000 kPa	719.9	741.3	767.2	787	816.8	830.3
333.15 K, 65000 kPa	723	744.3	770	789.8	819.4	832.9
333.15 K, 70000 kPa	726	747.2	772.8	792.4	821.9	835.3
333.15 K, 80000 kPa	731.6	752.6	778	797.4	826.7	839.9
333.15 K, 90000 kPa	737	757.8	783	802.3	831.3	844.5
333.15 K, 100000 kPa	742	762.6	787.7	806.8	835.6	848.7
333.15 K, 110000 kPa	746.8	767.3	792.2	811.2	839.8	852.8
333.15 K, 120000 kPa	751.3	771.6	796.4	815.4	843.8	856.8
333.15 K, 130000 kPa	755.6	775.8	800.6	819.4	847.7	860.5
333.15 K, 140000 kPa	759.8	–	–	–	–	–

Source: the NIST ThermoML archive (doi:10.1016/j.jct.2013.05.051)
